Here are results for ten compounds from US10981932B2, “Macrocyclic indole derivatives” (Bayer Aktiengesellschaft, priority 2016, dated 2021).

Counter-ions that a name gives are not always drawn. Like-named read-outs stand apart in the source and are kept apart here.

One series addresses MCL-1 (Homo sapiens, UniProt Q07820). Kind of series: Protein-protein interaction assay MCL-1/Noxa BH3 peptide (MCL-1 assay), TR-FRET. To be noted: MBP-MCL-1 / Noxa BH3-derived peptide, median. In kind it is binding. The gist of the method: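 IC50 came from a 4-parameter fit of the normalized 665/620 nm TR-FRET ratio (anti-MBP Eu-cryptate/streptavidin-XL665). Compounds (0.1 nM–20 μM, duplicates) were preincubated 10 min at 22 °C with 1 nM MBP-MCL-1 in pH 7 Tris/NaCl/KF buffer, then read after 1 h at 22 °C plus overnight at 4 °C.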

Series [1] deals with SUDHL5. Kind of series: Induction of caspase-3/7 activity (Caspase-Glo 3/7), SUDHL5. Format: cell-based. The conditions noted are these: caspase-3/7 induction, SUDHL5 cells, 3 h treatment, median. Put shortly: (§1)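 DLBCL lines SUDHL5 and SUDHL10 treated with compounds for 3 h at 37 °C; caspase-3/7 activity read by Caspase-Glo 3/7 luminescence. Medium-only background subtracted; EC50 fitted with bottom fixed at 1 and top fixed at the reference compound's maximal induction.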

The subject of series [2] is SUDHL10. In words: Induction of caspase-3/7 activity (Caspase-Glo 3/7), SUDHL10. The conditions noted are these: Homo sapiens, SU-DHL10, 3 h, caspase-3/7 induction, SUDHL10 cells, 3 h treatment; median. In kind it is cell-based. Put shortly:
as §1

Series [3] concerns SUDHL5. In words: Anti-proliferative effect (CellTiter-Glo, 72 h), SUDHL5. The conditions noted are these: SUDHL5 cells, antiproliferation, median, read-out: Antiproli SUDHL5 [M] (median). Format: cell-based. The gist of the method: (§2)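 72 h compound treatment, 37 °C humidified; CellTiter-Glo added, 10 min incubation, luminescence read; day 0 plate read in parallel for baseline.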
A general note: In ATP-based viability assays light output follows the ATP content of the culture.

For series [4], the system named is SUDHL10. In words: Anti-proliferative effect (CellTiter-Glo, 72 h), SUDHL10. The conditions noted are these: SUDHL10 cells, antiproliferation, median, read-out: Antiproli SUDHL10 [M] (median). Format: cell-based. On the procedure:
Assessment of the Anti-Proliferative Effect of Compounds in Different Cell Lines
The impact of compounds on the proliferation of different cell lines was assessed using the CellTiter-Glo® Luminescent Cell Viability reagent from Promega (G7573). Of note, SUDHL10 and SUDHL5 (DLBCL), NCI-H929 (Multiple Myeloma), A2780 (ovarian carcinoma) as well as MV-4-11(AML) cells are sensitive to MCL-1 inhibition.
In parallel, cells were plated in a reference (day 0) plate for time zero determination.
Rim wells were excluded. The cells were incubated for 72 h hours in a humidified incubator at 37° C. The day 0 plate was measured by adding 30 μl/well of CTG solution (CellTiter-Glo® Luminescent Cell Viability reagent, Promega G7573) to time zero wells in the reference plate followed by a 10 minutes incubation and luminescence reading at 0.1 ms, using the PHERAstar FS microplate reader (BMG Labtech).
After 72 h incubation, the treated plates were measured in the same way as the day 0 plate mentioned above.

A further series relates to A2780. In words: Anti-proliferative effect (CellTiter-Glo, 72 h), A2780. Format: cell-based. To be noted: A2780 cells, median, read-out: IC50 antiproliferation assay A2780 [M] (median). The gist of the method: as §2
For series [5], the system named is SUDHL5. Kind of series: Induction of cytotoxicity (CellTiter-Glo, 5 h), SUDHL5.
Series [6] concerns SUDHL10. In words: Induction of cytotoxicity (CellTiter-Glo, 5 h), SUDHL10. The conditions noted are these: Homo sapiens, SU-DHL10, 5 h.
The mark [7] stands for this setting: Homo sapiens, SU-DHL-5, 72 h, 72 h incubation.
Where [8] appears, read: Homo sapiens, SU-DHL10, 72 h, 72 h incubation.
Setting [9] is: Homo sapiens, SU-DHL-5, 5 h, read-out: Cytotox SUDHL5 [M] (median), SUDHL5 cells, cytotoxicity induction, CellTiter-Glo, 5 h incubation, median.
Setting [10] is: read-out: Cytotox SUDHL10 [M] (median), SUDHL10 cells, cytotoxicity induction, CellTiter-Glo, 5 h incubation, median.

Chain of MCL-1 (Q07820 whole entry): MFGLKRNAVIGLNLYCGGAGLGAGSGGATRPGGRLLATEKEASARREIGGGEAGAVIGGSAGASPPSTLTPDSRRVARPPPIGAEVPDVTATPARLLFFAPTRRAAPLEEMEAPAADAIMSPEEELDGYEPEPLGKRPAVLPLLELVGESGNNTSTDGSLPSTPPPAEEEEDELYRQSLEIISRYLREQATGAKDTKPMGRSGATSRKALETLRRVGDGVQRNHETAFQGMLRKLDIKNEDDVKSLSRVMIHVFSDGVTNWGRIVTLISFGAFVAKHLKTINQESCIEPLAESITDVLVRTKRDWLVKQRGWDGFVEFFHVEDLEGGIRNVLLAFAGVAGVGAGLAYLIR

For orientation: EC50 means the midpoint of the concentration-response curve. A lower EC50 goes with higher potency in that assay. Consider `Cc1ccc2c(CCCOc3cccc4ccccc34)c(C(=O)O)n3c2c1-c1c(C)nn(C)c1COCC=CC3` (racemic) [Example 038, (rac)-(E/Z)-1,3,4-trimethyl-7-[3-(1-naphthyloxy)propyl]-1,10,13,15-tetrahydropyrazolo[4′,3′:9,10][1,6]oxazacycloundecino[8,7,6-hi]indole-8-carboxylic Acid], for which the IC50 against MCL-1 is 0.00965 µM; in the series with SUDHL5 [3] (setting [7]) it was 1.64e-05 M; with SUDHL10 [4] (setting [8]), 1.46e-05 M; with A2780 (Homo sapiens, A2780, 72 h) it was above 3.3e-05 M; with SUDHL5 [5] (setting [9]) it was 1.46e-05 M; in the series on SUDHL10 [6] (setting [10]) it was above 3.3e-05 M. Also, the EC50 in the series with SUDHL5 [1] (Homo sapiens, SU-DHL-5, 3 h) is 13.9 µM; in the series with SUDHL10 [2] it was above 33 µM.

Regarding `Cc1nn(C)c2c1-c1cccc3c(CCCOc4cccc5cc(Cl)ccc45)c(C(=O)O)n(c13)CCCCOC2` (racemic) [Example 040, (rac)-7-{3-[(6-chloronaphthalen-1-yl)oxy]propyl}-1,3-dimethyl-1,10,11,12,13,15-hexahydropyrazolo[4′,3′:9,10][1,6]oxazacycloundecino[8,7,6-hi]indole-8-carboxylic Acid], the IC50 on MCL-1 is 0.0144 µM; in the series on SUDHL5 [3] (setting [7]), 1.33e-05 M; in the series with SUDHL10 [4] (setting [8]), 3.25e-06 M; in the series on A2780 (Homo sapiens, A2780, 72 h), 1.9e-05 M; with SUDHL5 [5] (setting [9]), 1.66e-05 M; in the series with SUDHL10 [6] (setting [10]) it was above 3.3e-05 M. The EC50 is 21 µM in the series with SUDHL5 [1] (Homo sapiens, SU-DHL-5, 3 h) and above 33 µM with SUDHL10 [2].

As to `Cc1nn(C)c2c1-c1cccc3c(CCCOc4cccc5ccccc45)c(C(=O)O)n(c13)CCCOC2` (racemic) [Example 043, (rac)-9,11-dimethyl-1-[3-(naphthalen-1-yloxy)propyl]-5,6,8,9-tetrahydro-4H-pyrazolo[4′,3′:8,9][(1,5]oxazecino[7,6,5-hi]indole-2-carboxylic Acid], the IC50 on MCL-1 was 0.0127 µM; with SUDHL5 [3] (setting [7]) it was 1.05e-05 M; in the series with SUDHL10 [4] (setting [8]) it was 4.93e-06 M; with A2780, 2.6e-05 M; in the series on A2780 (Homo sapiens, A2780, 72 h) it was above 3.3e-05 M; in the series on SUDHL5 [5] (setting [9]), 1.79e-05 M. Further, the IC50 in the series on SUDHL10 [6] (setting [10]) was above 3.3e-05 M. Moreover, the EC50 in the series with SUDHL5 [1] (Homo sapiens, SU-DHL-5, 3 h) is 18.7 µM; in the series on SUDHL10 [2] it was above 33 µM.

With `Cc1nn(C)c2c1-c1cccc3c(CCCOc4cccc5cc(F)ccc45)c(C(=O)O)n(c13)CCCOC2` (racemic) [Example 046, (rac)-1-{3-[(6-fluoronaphthalen-1-yl)oxy]propyl}-9,11-dimethyl-5,6,8,9-tetrahydro-4H-pyrazolo[4′,3′:8,9][1,5]oxazecino[7,6,5-hi]indole-2-carboxylic Acid], the IC50 turned out to be 0.0108 µM on MCL-1; 6.27e-06 M with SUDHL5 [3] (setting [7]); 3.94e-06 M in the series with SUDHL10 [4] (setting [8]); 2.65e-05 M with A2780 (Homo sapiens, A2780, 72 h); 6.09e-06 M in the series on SUDHL5 [5] (setting [9]); 2.33e-05 M with SUDHL10 [6] (setting [10]). For the same compound, the EC50 in the series with SUDHL5 [1] (Homo sapiens, SU-DHL-5, 3 h) came to 5.7 µM; in the series with SUDHL10 [2], 17 µM.

For the compound `Cc1cc2c(OCCCc3c(C(=O)O)n4c5c(cccc35)-c3c(C)nn(C)c3COCCCC4)cccc2cc1F` (racemic) [Example 049, (rac)-7-{3-[(6-fluoro-7-methylnaphthalen-1-yl)oxy]propyl}-1,3-dimethyl-1,10,11,12,13,15-hexahydropyrazolo[4′,3′:9,10][1,6]oxazacycloundecino[8,7,6-hi]indole-8-carboxylic Acid], the IC50 at MCL-1 was 0.00318 µM; in the series on SUDHL5 [3] (setting [7]), 1.1e-05 M; in the series on SUDHL10 [4] (setting [8]) it was 6.98e-06 M; in the series on A2780 (Homo sapiens, A2780, 72 h), 1.57e-05 M; with SUDHL5 [5] (setting [9]), 1.13e-05 M; with SUDHL10 [6] (setting [10]), 3.14e-05 M. Moreover, the EC50 was 14.2 µM in the series with SUDHL5 [1] (Homo sapiens, SU-DHL-5, 3 h) and above 33 µM in the series with SUDHL10 [2].

For `Cn1nc2c(c1CN1CCOCC1)-c1cccc3c(CCCOc4cccc5ccccc45)c(C(=O)O)n(c13)CCOCCOC2` (racemic) [Example 087], the IC50 against MCL-1 was 0.097 µM; with SUDHL5 [3] (setting [7]), above 3.3e-05 M; in the series with SUDHL10 [4] (setting [8]) it was 1.41e-05 M; with A2780 (Homo sapiens, A2780, 72 h), above 3.3e-05 M; with SUDHL5 [5] (setting [9]), above 3.3e-05 M; with SUDHL10 [6] (setting [10]), above 3.3e-05 M. The half-maximal effective concentration (EC50) in the series with SUDHL5 [1] (Homo sapiens, SU-DHL-5, 3 h) is above 33 µM; with SUDHL10 [2], above 33 µM.

Consider `CCn1nc(C2CC2)c2c1COCCCCn1c(C(=O)O)c(CCCOc3cccc4ccccc34)c3cccc-2c31` (racemic) [Example 088, (rac)-3-Cyclopropyl-1-ethyl-7-[3-(naphthalen-1-yloxy)propyl]-1,10,11,12,13,15-hexahydropyrazolo[4′,3′:9,10][1,6]oxazacycloundecino[8,7,6-hi]indole-8-carboxylic Acid], for which the IC50 against MCL-1 is 0.00694 µM; with SUDHL5 [3] (setting [7]) it was 1.76e-05 M; in the series with SUDHL10 [4] (setting [8]) it was 2.67e-05 M; with A2780 (Homo sapiens, A2780, 72 h) it was 2.35e-05 M; with SUDHL5 [5] (setting [9]), 1.1e-05 M; with SUDHL10 [6] (setting [10]) it was above 3.3e-05 M. In addition, the EC50 in the series on SUDHL5 [1] (Homo sapiens, SU-DHL-5, 3 h) was 13.5 µM; with SUDHL10 [2], above 33 µM.

With `Cc1c2c(nn1C1CC1)COCCCCn1c(C(=O)O)c(CCCOc3cccc4ccccc34)c3cccc-2c31` (racemic) [Example 092, (rac)-2-cyclopropyl-3-methy-7-[3-(naphthalen-1-yloxy)propyl]-2,10,11,12,13,15-hexahydropyrazolo[4′,3′:9,10][1,6]oxazacycloundecino[8,7,6-hi]indole-8-carboxylic Acid], the IC50 on MCL-1 turned out to be 0.00708 µM; in the series on SUDHL5 [3] (setting [7]), 8.25e-06 M; with SUDHL10 [4] (setting [8]), 2.06e-06 M; in the series on A2780 (Homo sapiens, A2780, 72 h) it was 2.48e-05 M; in the series with SUDHL5 [5] (setting [9]), 6.75e-06 M; in the series on SUDHL10 [6] (setting [10]), 2.23e-05 M. Moreover, the EC50 in the series with SUDHL5 [1] (Homo sapiens, SU-DHL-5, 3 h) worked out at 6.16 µM; with SUDHL10 [2] it was 20.2 µM.

As to `Cc1nn(CC(F)(F)F)c2c1-c1cccc3c(CCCOc4cccc5ccccc45)c(C(=O)O)n(c13)C/C=C\COC2` (racemic) [Example 098, (rac)-(11Z)-3-methyl-7-[3-(naphthalen-1-yloxy)propyl]-12-(2,2,2-trifluoroethyl)-1,10,13,15-tetrahydropyrazolo[4′,3′:9,10][1,6]oxazacycloundecino[8,7,6-hi]indole-8-carboxylic Acid], the IC50 is 0.0827 µM at MCL-1; 2.74e-05 M with SUDHL5 [3] (setting [7]); 1.15e-05 M in the series with SUDHL10 [4] (setting [8]); 2.09e-05 M in the series with A2780 (Homo sapiens, A2780, 72 h); 2.94e-05 M in the series on SUDHL5 [5] (setting [9]); above 3.3e-05 M with SUDHL10 [6] (setting [10]). The concentration for a half-maximal effect (EC50) in the series with SUDHL5 [1] (Homo sapiens, SU-DHL-5, 3 h) was above 33 µM; in the series with SUDHL10 [2] it was above 33 µM.

Take `COc1ccc(OCc2nn(C)c3c2-c2cccc4c(CCCOc5cccc6ccccc56)c(C(=O)O)n(c24)CCCCOC3)cc1` (single isomer, unassigned; enantiomer 1) [Example 320, 3-[(4-methoxyphenoxy)methyl]-1-methyl-7-[3-(naphthalen-1-yloxy)propyl]-1,10,11,12,13,15-hexahydropyrazolo[4′,3′:9,10][1,6]oxazacycloundecino[8,7,6-hi]indole-8-carboxylic Acid-N-ethylethanamine Salt (Enantiomer 1)]: the IC50 was 0.0226 µM against MCL-1; 5.43e-06 M with SUDHL5 [3] (72 h); 9.36e-06 M in the series with SUDHL10 [4] (72 h); 1.41e-05 M in the series with A2780 (Homo sapiens, A2780, 72 h); 1.1e-05 M in the series with SUDHL5 [5] (read-out: Cytotox SUDHL5 [M] (median), SUDHL5 cells, cytotoxicity induction, CellTiter-Glo, 5 h, median); 2.29e-05 M in the series on SUDHL10 [6] (read-out: Cytotox SUDHL10 [M] (median), SUDHL10 cells, cytotoxicity induction, CellTiter-Glo, 5 h, median). For the same compound, in the series with SUDHL5 [1], the EC50 is 13.8 µM.
